# Measured values: patent US20230066011A1, “PYRROLOPYRIMIDINE DERIVATIVE, AND PHARMACEUTICAL COMPOSITION FOR PREVENTING OR TREATING PROTEIN KINASE-RELATED DISEASE COMPRISING SAME AS ACTIVE INGREDIENT” (VORONOI CO., LTD., priority 2019, published 2023)
# Assays:
# human GST-DYRK1A = biological target: T1, human GST-DYRK1A (Homo sapiens, UniProt Q13627); assay: GST-DYRK1A enzyme inhibition, ADP-Glo kinase assay; type: biochemical; settings: ATP 10 μM, GST-DYRK1A full length, read-out: DYRK1 IC50
# T1 construct: purified human GST-DYRK1A (full length, Thermo Scientifics) enzyme; purchased Thermo Scientifics
# Procedure, shortened: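 Full-length human GST-DYRK1A (10 ng) with 10 μM ATP and specific substrate in 40 mM Tris-HCl pH 7.4, 20 mM MgCl2, 0.5 mg/mL BSA, 50 μM DTT, 1 h at 25 °C. ADP formation read by ADP-Glo luminescence relative to solvent control; IC50 from three data sets.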
# LRRK2 = LRRK2 (Homo sapiens, UniProt Q5S007); assay: LRRK2 enzyme inhibition, ADP-Glo kinase assay; type: biochemical; parameters: purchased Invitrogen PR8604B; settings: ATP 10 μM
# Procedure, shortened: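 Purified human LRRK2 (25 ng) with 10 μM ATP and 0.2 μg substrate in 40 mM Tris-HCl pH 7.4, 20 mM MgCl2, 0.5 mg/mL BSA, 50 μM DTT, 2 h at 25° C. ADP-Glo luminescence; 12-point compound series from 50 μM final; IC50 relative to solvent control.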
# human DYRK1A and tau = assay: Inhibition of tau phosphorylation, ClariCELL Kinase Cell-Based Assay, HEK 293 cells expressing human DYRK1A and tau; settings: for inhibition at 1 µM: HEK293, read-out: % inhibition at 1 uM, tau phosphorylation, compound 1 uM; for inhibition at 0.25 µM / inhibition at 0.5 µM: HEK293, tau phosphorylation; for inhibition at 0.25 µM: compound 0.25 uM; for inhibition at 0.5 µM: compound 0.5 uM
# Procedure, shortened: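 Cell-based service assay: HEK 293 cells transiently expressing human DYRK1A and tau were treated with compound and lysed. Released tau was plate-captured and its phosphorylation quantified by ELISA with a phospho-tau-specific antibody.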
# Sequence of LRRK2 (Q5S007 970-2527 limits assumed): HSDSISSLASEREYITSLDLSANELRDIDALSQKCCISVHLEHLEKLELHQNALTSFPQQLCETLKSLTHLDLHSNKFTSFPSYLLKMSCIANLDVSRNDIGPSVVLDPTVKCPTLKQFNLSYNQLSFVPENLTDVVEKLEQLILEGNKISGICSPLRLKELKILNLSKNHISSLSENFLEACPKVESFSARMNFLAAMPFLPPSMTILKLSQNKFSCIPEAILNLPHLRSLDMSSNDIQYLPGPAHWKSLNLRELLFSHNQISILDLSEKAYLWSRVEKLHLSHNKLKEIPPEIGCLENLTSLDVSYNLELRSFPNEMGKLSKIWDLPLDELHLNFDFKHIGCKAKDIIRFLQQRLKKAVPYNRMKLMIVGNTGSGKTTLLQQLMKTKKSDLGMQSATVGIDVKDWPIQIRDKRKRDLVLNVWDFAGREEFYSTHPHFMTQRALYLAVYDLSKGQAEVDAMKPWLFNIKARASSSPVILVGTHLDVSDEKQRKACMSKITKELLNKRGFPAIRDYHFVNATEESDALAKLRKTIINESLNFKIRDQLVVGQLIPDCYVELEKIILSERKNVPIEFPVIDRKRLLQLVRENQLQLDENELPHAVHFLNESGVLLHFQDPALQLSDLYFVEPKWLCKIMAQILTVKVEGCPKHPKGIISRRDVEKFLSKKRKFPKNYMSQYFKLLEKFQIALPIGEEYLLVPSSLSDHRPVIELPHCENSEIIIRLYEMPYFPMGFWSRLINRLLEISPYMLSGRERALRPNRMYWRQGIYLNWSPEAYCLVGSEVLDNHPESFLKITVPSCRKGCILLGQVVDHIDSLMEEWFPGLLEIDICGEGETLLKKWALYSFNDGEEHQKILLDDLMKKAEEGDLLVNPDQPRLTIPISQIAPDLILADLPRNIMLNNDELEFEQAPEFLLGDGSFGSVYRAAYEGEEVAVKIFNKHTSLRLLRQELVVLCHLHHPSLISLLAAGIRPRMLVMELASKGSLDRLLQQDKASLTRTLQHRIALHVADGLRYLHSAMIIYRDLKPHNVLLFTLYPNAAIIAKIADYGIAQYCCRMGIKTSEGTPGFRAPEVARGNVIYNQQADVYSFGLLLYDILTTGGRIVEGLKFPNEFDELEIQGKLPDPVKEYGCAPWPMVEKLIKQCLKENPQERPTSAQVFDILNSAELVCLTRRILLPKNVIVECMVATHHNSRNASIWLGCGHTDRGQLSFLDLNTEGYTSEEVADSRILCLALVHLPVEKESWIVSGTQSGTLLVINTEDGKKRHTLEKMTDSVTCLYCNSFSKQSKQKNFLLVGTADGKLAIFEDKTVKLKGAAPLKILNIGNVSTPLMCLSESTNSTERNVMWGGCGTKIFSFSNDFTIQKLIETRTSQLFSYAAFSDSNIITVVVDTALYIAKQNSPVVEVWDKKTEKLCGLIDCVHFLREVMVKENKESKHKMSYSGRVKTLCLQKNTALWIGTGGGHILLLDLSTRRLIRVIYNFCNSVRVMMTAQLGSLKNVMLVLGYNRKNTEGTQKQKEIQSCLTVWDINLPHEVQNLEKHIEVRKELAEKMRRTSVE
IC50 (human GST-DYRK1A) [nM],IC50 (LRRK2) [nM],SMILES,inhibition at 1 µM (human DYRK1A and tau) [%],inhibition at 0.25 µM (human DYRK1A and tau) [%],inhibition at 0.5 µM (human DYRK1A and tau) [%]
< 100,< 100,"CCNc1nc(Nc2ccc(C(=O)N3CCC(N4CCOCC4)CC3)c3c2OCC3)nc2[nH]cc(C(F)(F)F)c12 [Example 438, (7-((4-(ethylamino)-5-(trifluoromethyl)-7H-pyrrolo[2,3-d]pyrimidin-2-yl)amino)-2,3-dihydrobenzo-furan-4-yl)(4-morpho-linopiperidin-1-yl)methanone]",86.8,46.3,69.7
< 100,< 100,"COCCNc1nc(Nc2ccc(P3(=O)CCN(C4CCOCC4)CC3)cc2OC)nc2[nH]cc(C(F)(F)F)c12 [Example 444, 4-(3-methoxy-4-((4-((2-methoxyethyl)amino)-5-(trifluoromethyl)-7H-pyrrolo[2,3-d]pyrimidin-2-yl)amino)phenyl)-1-(tetrahydro-2H-pyran-4-yl)-1,4-azaphosphinane 4-oxide]",65.6,21.7,45.7
< 100,< 100,"CCCNc1nc(Nc2ccc(C(=O)N3CCC(N4CCOCC4)CC3)c3c2OCC3)nc2[nH]cc(C(F)(F)F)c12 [Example 446, (4-morpholino-piperidin-1-yl)(7-((4-(propylamino)-5-(trifluoromethyl)-7H-pyrrolo[2,3-d]pyrimidin-2-yl)amino)-2,3-dihydrobenzo-furan-4-yl)methanone]",84.9,25.7,61.1
< 100,< 100,"O=C(c1ccc(Nc2nc(NCC3CC3)c3c(C(F)(F)F)c[nH]c3n2)c2c1CCO2)N1CCC(N2CCOCC2)CC1 [Example 461, (7-((4-((cyclo-propylmeth-yl)amino)-5-(trifluoromethyl)-7H-pyrrolo[2,3-d]pyrimidin-2-yl)amino)-2,3-dihydrobenzo-furan-4-yl)(4-morpho-linopiperidin-1-yl)methanone]",72.2,18.2,46.9
< 100,< 100,CCNc1nc(Nc2ccc(C(=O)N3CCC(N4C[C@@H]5C[C@H]4CO5)CC3)c3c2OCC3)nc2[nH]cc(C(F)(F)F)c12 [Example 468],92.5,50.3,75.4
< 100,< 100,"CCNc1nc(Nc2ccc(C(=O)N3CC[C@H](N4CCOCC4)C3)c3c2OCC3)nc2[nH]cc(C(F)(F)F)c12 [Example 475, (S)-(7-((4-(ethylamino)-5-(trifluoromethyl)-7H-pyrrolo[2,3-d]pyrimidin-2-yl)amino)-2,3-dihydrobenzo-furan-4-yl)(3-morpholino-pyrrolidin-1-yl)methanone]",86.8,42.6,65.3
